Assay results taken from ChEMBL document CHEMBL4004854, “Pyrrolo[3',2':6,7]cyclohepta[1,2-b]pyridines with potent photo-antiproliferative activity” (Eur J Med Chem, 2017).
Activity calls are given as the source filed them. No cut-off for these calls is given here.

What was measured:
MCF7 [1] = test: Induction of apoptosis in human MCF7 cells assessed as necrotic cells at 0.7 uM upon UV light irradiation measured after 24 hrs by Annexin V-FITC/propidium iodide staining based flow cytometry relative to control; format: functional
Jurkat [2] = test: Phototoxicity against human Jurkat cells assessed as cell viability at 0.075 uM preincubated for 30 mins followed by 2.5 J/cm2 UV light irradiation measured after 72 hrs in presence of hydroxyl radical scavenger DMTU by MTT assay relative to control; format: functional; details: light or radiation study, read-out: Activity
MCF7 [3] = test: Induction of ROS generation in human MCF7 cells up to 4 uM preincubated for 30 mins followed by UV light irradiation measured after 2 hrs in presence of 200 to 500 nM antioxidant NAC by H2DCFDA staining based fluorescence assay; format: functional, cell-based
MCF7 [4] = test: Induction of apoptosis in human MCF7 cells assessed as apoptotic cells at 0.7 uM upon UV light irradiation measured after 24 hrs by Annexin V-FITC/propidium iodide staining based flow cytometry (reference value: 22%); format: functional
MCF7 [5] = test: Induction of ROS generation in human MCF7 cells at 4 uM preincubated for 30 mins followed by UV light irradiation measured after 2 hrs by H2DCFDA staining based fluorescence assay relative to control; format: functional
MCF7 [6] = test: Induction of lysosomal membrane impairment in human MCF7 cells at 2 uM upon UV light irradiation measured up to 2 hrs by lysotracker green DND26 dye based confocal microscopic method; format: functional, cell-based
MCF7 [7] = test: Induction of mitochondrial dysfunction in human MCF7 cells assessed as organelle fusion at 2 uM upon UV light irradiation measured after 0.33 to 2 hrs by mitotracker orange CMTM-ROS/LCS1 dye based confocal microscopic method; format: functional, cell-based
[8] = Singlet oxygen sensitizing activity in aqueous acetonitrile solution irradiated with nanosecond laser flash photolysis assessed as lowest triplet-excited state by measuring short lived transient life time at 10^-4 M at 520 nanometer under argon saturated condition by spectroscopic method
Jurkat [9] = test: Phototoxic index, ratio of CC50 for human Jurkat cells under dark condition to EC50 for human Jurkat cells under UV light irradiated condition
Jurkat [10] = test: Phototoxicity against human Jurkat cells assessed as cell viability at 0.075 uM preincubated for 30 mins followed by 2.5 J/cm2 UV light irradiation measured after 72 hrs in presence of vitamin E by MTT assay relative to control; format: functional; details: light or radiation study, read-out: Activity
[11] = Singlet oxygen sensitizing activity in aqueous acetonitrile solution irradiated with nanosecond laser flash photolysis assessed as lowest triplet-excited state by measuring short lived transient life time at 10^-4 M at 520 nanometer under oxygen saturated condition by spectroscopic method
[12] = Singlet oxygen sensitizing activity in aqueous acetonitrile solution irradiated with nanosecond laser flash photolysis assessed as lowest triplet-excited state by measuring short lived transient life time at 10^-4 M at 520 nanometer under air equilibrated condition by spectroscopic method
[13] = Dark toxicity against human K562 cells assessed as reduction in cell viability after 72 hrs by MTT assay; format: cell-based
MCF7 [14] = test: Phototoxicity against human MCF7 cells assessed as reduction in cell viability preincubated for 30 mins followed by 1.25 J/cm2 UV light irradiation measured after 48 hrs by MTT assay; format: functional, cell-based; details: MCF7, light or radiation study
Escherichia coli [15] = test: Induction of Escherichia coli pBR322 DNA single strand break assessed as open circular form DNA bands at 10 to 40 uM upon 7.5 J/cm2 UV-A light irradiation by ethidium bromide staining based UV transillumination assay
[16] = Drug metabolism in aqueous acetonitrile solution assessed as by-product formation at 2.3 10^-5M upon light irradiation by UV-absorption method; format: physicochemical; details: buffer
[17] = Singlet oxygen sensitizing activity in aqueous acetonitrile solution irradiated with nanosecond laser flash photolysis assessed as lowest triplet-excited state by measuring long lived transient life time at 10^-4 M at 440 nanometer by spectroscopic method
Escherichia coli [18] = test: Induction of Escherichia coli pBR322 DNA oxidative damage at 40 uM upon 7.5 J/cm2 UV-A light irradiation in presence of Fpg by ethidium bromide staining based electrophoresis
[19] = Dark toxicity against human Jurkat cells assessed as reduction in cell viability after 72 hrs by MTT assay; format: cell-based
MCF7 [20] = test: Induction of mitochondrial dysfunction in human MCF7 cells assessed as mild swelling at 2 uM upon UV light irradiation measured after 0.33 to 2 hrs by mitotracker orange CMTM-ROS/LCS1 dye based confocal microscopic method; format: functional, cell-based
Escherichia coli [21] = test: Induction of Escherichia coli pBR322 DNA oxidative damage at 40 uM upon 7.5 J/cm2 UV-A light irradiation in presence of endonuclease-3 by ethidium bromide staining based electrophoresis
[22] = Dark toxicity against human MCF7 cells assessed as reduction in cell viability after 72 hrs by MTT assay; format: cell-based
K562 [23] = test: Phototoxic index, ratio of CC50 for human K562 cells under dark condition to EC50 for human K562 cells under UV light irradiated condition
MCF7 [24] = test: Induction of mitochondrial dysfunction in human MCF7 cells assessed as perinuclear clustering at 2 uM upon UV light irradiation measured after 0.33 to 2 hrs by mitotracker orange CMTM-ROS/LCS1 dye based confocal microscopic method; format: functional, cell-based
Escherichia coli [25] = test: Induction of Escherichia coli pBR322 DNA double strand break assessed as linear form DNA bands at 10 to 40 uM upon 7.5 J/cm2 UV-A light irradiation by ethidium bromide staining based UV transillumination assay
[26] = Drug metabolism in aqueous acetonitrile solution assessed as by-product formation at 2.3 10^-5M upon light irradiation by HPLC analysis; format: physicochemical; details: buffer
[27] = Induction of singlet oxygen photogeneration in aqueous acetonitrile solution of ADPA assessed as photobleaching of anthracene absorption upon 150 Watt mercury light irradiation at 2.3 10^-5M at 400 nanometer measured up to 100 mins by ferrioxalate actinometry
Jurkat [28] = test: Induction of lipid peroxidation in human Jurkat cells upon 2.5 J/cm2 UV light irradiation measured after 24 hrs by TBARS assay; format: functional, cell-based
MCF7 [29] = test: Phototoxic index, ratio of CC50 for human MCF7 cells under dark condition to EC50 for human MCF7 cells under UV light irradiated condition
K562 [30] = test: Phototoxicity against human K562 cells assessed as reduction in cell viability preincubated for 30 mins followed by 1.25 J/cm2 UV light irradiation measured after 48 hrs by MTT assay; format: functional, cell-based; details: K562, light or radiation study
MCF7 [31] = test: Induction of mitochondrial dysfunction in human MCF7 cells at 2 uM under dark condition measured after 0.33 to 2 hrs by mitotracker orange CMTM-ROS/LCS1 dye based confocal microscopic method; format: cell-based; details: mcf7, 2 µM
Jurkat [32] = test: Phototoxicity against human Jurkat cells assessed as reduction in cell viability preincubated for 30 mins followed by 1.25 J/cm2 UV light irradiation measured after 48 hrs by MTT assay; format: functional, cell-based; details: light or radiation study
MCF7 [33] = test: Induction of lysosomal activation in human MCF7 cells at 2 uM upon UV light irradiation measured up to 2 hrs by lysotracker green DND26 dye based confocal microscopic method; format: functional, cell-based
[34] = Singlet oxygen sensitizing activity in aqueous acetonitrile solution irradiated with nanosecond laser flash photolysis assessed as lowest triplet-excited state by measuring short lived transient life time at 10^-4 M at 520 nanometer by spectroscopic method
MCF7 [35] = test: Induction of apoptosis in human MCF7 cells assessed as tBID activation at 0.25 to 0.5 uM upon 2.5 J/cm2 UV light irradiation measured after 24 hrs by Western blot method; format: functional, cell-based
MCF7 [36] = test: Induction of apoptosis in human MCF7 cells assessed as caspase-3 activation at 0.25 to 0.5 uM upon 2.5 J/cm2 UV light irradiation measured after 24 hrs by Western blot method; format: functional, cell-based
[37] = Induction of singlet oxygen photogeneration in aqueous acetonitrile solution of ADPA assessed as photobleaching of anthracene absorption upon 150 Watt mercury light irradiation at 2.3 10^-5M at 400 nanometer measured up to 100 mins
MCF7 [38] = test: Induction of ROS generation in human MCF7 cells up to 4 uM measured after 2 hrs under dark condition by H2DCFDA staining based fluorescence assay; format: cell-based; details: mcf7, 2 h
MCF7 [39] = test: Induction of lysosomal activation in human MCF7 cells at 2 uM under dark condition measured up to 2 hrs by lysotracker green DND26 dye based confocal microscopic method; format: cell-based; details: mcf7, 2 h
MCF7 [40] = test: Induction of apoptosis in human MCF7 cells assessed as apoptotic cells at 20 uM upon UV light irradiation measured after 24 hrs by Annexin V-FITC/propidium iodide staining based flow cytometry (reference value: 22%); format: functional
MCF7 [41] = test: Induction of mitochondrial dysfunction in human MCF7 cells at 2 uM upon UV light irradiation measured after 0.33 to 2 hrs by mitotracker orange CMTM-ROS/LCS1 dye based confocal microscopic method; format: functional, cell-based
MCF7 [42] = test: Induction of apoptosis in human MCF7 cells assessed as live cells at 20 uM upon UV light irradiation measured after 24 hrs by Annexin V-FITC/propidium iodide staining based flow cytometry (reference value: 72%); format: functional

CCOC(=O)c1cc2c(n1Cc1ccc(OC)cc1)-c1[nH]c(=O)c(S(=O)(=O)c3ccccc3)cc1CCC2
Activity (MCF7 [1]): 18%
viability at 0.075 µM (Jurkat [2]): 80 to 90%
Activity (MCF7 [3]): inactive
Activity (MCF7 [4]): 36%
Activity (MCF7 [5]): <=150%
Activity (MCF7 [6]): Active
Activity (MCF7 [7]): Active
Time [8]: 3.2 microsec
Ratio CC50/EC50 (Jurkat [9]): >95.24
viability at 0.075 µM (Jurkat [10]): 80 to 90%
Time [11]: 0.7 microsec
Time [12]: 1.2 microsec
CC50 at 72 h [13]: > 20 µM
EC50 (MCF7 [14]): 0.7 µM
Activity (Escherichia coli [15]): inactive
Drug metabolism [16]: Metabolite_Notdetected
Time [17]: > 30 microsec
Activity (Escherichia coli [18]): Active
CC50 at 72 h [19]: > 20 µM
Activity (MCF7 [20]): Active
Activity (Escherichia coli [21]): Active
CC50 at 72 h [22]: > 20 µM
Ratio CC50/EC50 (K562 [23]): >71.43
Activity (MCF7 [24]): Active
Activity (Escherichia coli [25]): inactive
Drug metabolism [26]: Metabolite_Notdetected
Activity [27]: Active
Activity (Jurkat [28]): Dose-dependent effect
Ratio CC50/EC50 (MCF7 [29]): >28.53
EC50 (K562 [30]): 0.28 µM
Activity (MCF7 [31]): Non-Toxic
EC50 (Jurkat [32]): 0.21 µM
Activity (MCF7 [33]): Active
Time [34]: < 3.2 microsec
Activity (MCF7 [35]): Active
Activity (MCF7 [36]): Active
Activity [37]: Active

Cn1ccc2c1-c1c(cc(S(=O)(=O)c3ccccc3)c(=O)n1C)CCC2
Activity (MCF7 [38]): Non-Toxic
CC50 at 72 h [13]: > 20 µM
EC50 (MCF7 [14]): > 20 µM
Activity (MCF7 [39]): Non-Toxic
CC50 at 72 h [19]: > 20 µM
Activity (MCF7 [40]): 25%
CC50 at 72 h [22]: > 20 µM
Activity (MCF7 [41]): inactive
EC50 (K562 [30]): > 20 µM
Activity (MCF7 [42]): 66%
Activity (MCF7 [31]): Non-Toxic
EC50 (Jurkat [32]): > 20 µM
Activity (MCF7 [33]): inactive
